Measurements taken from patent US20170152258A9, “Substituted Pyridopyrazines as Syk Inhibitors” (HUTCHISON MEDIPHARMA LIMITED, priority 2012, published 2017).
pIC50: −log10 of the molar value.

Biological target: T1, Flt-3 (Homo sapiens, UniProt P36888)
T1 sequence (P36888 27-993): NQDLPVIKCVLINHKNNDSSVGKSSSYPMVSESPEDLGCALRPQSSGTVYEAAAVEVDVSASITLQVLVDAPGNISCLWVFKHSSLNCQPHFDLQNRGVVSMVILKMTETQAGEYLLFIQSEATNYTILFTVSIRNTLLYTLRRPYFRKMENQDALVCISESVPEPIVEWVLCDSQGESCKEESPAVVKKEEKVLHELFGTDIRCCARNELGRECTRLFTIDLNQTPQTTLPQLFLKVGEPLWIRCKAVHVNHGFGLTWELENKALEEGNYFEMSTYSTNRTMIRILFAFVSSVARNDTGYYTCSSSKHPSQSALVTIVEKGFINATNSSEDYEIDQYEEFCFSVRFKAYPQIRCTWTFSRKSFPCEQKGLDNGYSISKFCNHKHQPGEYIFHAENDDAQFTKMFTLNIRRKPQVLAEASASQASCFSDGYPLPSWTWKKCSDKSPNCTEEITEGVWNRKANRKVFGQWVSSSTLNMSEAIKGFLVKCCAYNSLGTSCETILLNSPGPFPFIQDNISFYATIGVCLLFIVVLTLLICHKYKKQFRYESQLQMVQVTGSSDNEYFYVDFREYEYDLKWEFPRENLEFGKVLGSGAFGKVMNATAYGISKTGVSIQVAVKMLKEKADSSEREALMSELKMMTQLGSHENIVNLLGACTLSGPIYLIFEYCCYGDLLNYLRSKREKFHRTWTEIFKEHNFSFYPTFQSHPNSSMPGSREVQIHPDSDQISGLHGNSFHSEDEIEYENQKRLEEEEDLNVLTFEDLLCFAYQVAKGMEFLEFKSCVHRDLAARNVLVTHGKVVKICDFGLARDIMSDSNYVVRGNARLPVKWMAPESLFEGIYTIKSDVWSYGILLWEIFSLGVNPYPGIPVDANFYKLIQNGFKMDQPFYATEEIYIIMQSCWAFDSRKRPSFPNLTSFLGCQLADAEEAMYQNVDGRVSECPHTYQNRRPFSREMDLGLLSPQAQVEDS
Assay: Z-Lyte Kinase Assay of Flt-3
Format: biochemical
Settings: Flt3 kinase
Procedure: Z-Lyte Kinase Assay of Flt-3:
Serially dilute the test compounds to 4 folds of the concentrations desired, keeping the DMSO concentration at 8%. The final concentrations were 3, 1, 0.33, 0.11, 0.037, 0.012, 0.004, 0.0014 μM, and the final concentration of DMSO was 2%.
Prepare Kinase/Peptide Mixture by diluting the kinase to 0.12 μg/mL and the Z-LYTE™ Tyr 2 peptide to 4 μM in 1.33× Kinase Buffer. Mix gently by pipetting.
Prepare ATP Solution by diluting the 10 mM of ATP in 1.33× Kinase Buffer to 1.88 mM.
• a. Add 2.5 μL of 4× test Cpds to each well except C1, C2, C3 wells • Add 2.5 μL of 8% DMSO to C1, C2, C3 wells • b. Put the 384-plate on ice • c. Add 5 μL of P/K mixture to each test Cpd wells and C1, C2 wells • d. Add 5 μL of PP Solution to C3 well • e. Add 2.5 μL of 1.33× kinase buffer to C1 and C3 wells • f. Add 2.5 μL of 4×ATP Solution to each test Cpd wells and C2 well, respectively. • Shake the plate for 30 Sec and centrifuge (1500 rpm, 1 min) • g. Seal the plate to protect from the light and incubate the plate for 1 hour at RT (25-30° C.).
• a. Add 5 μL of the Development solution to all wells • b. Shake the plate for 30 Sec and centrifuge (1500 rpm, 1 min) • c. Seal the plate to protect from the light and incubate the plate for 1 hour at RT (25-30° C.).
• a. […]
IC50 Value: determined with add-in software for Microsoft Excel, XLfit™ (version 2.0) from ID Business Solutions (Guildford, UK)

Row | Structure (SMILES) | pIC50
1 | CC(C)(O)c1ccc(-c2cc3nccnc3c(OC[C@@H]3CN(S(C)(=O)=O)CCO3)n2)cc1 [Compound 219] | 6.06
2 | CC(=O)N1CCO[C@H](COc2nc(-c3ccc4c(c3)CCOC4(C)C)cc3nccnc23)C1 [Compound 300] | 6.05
